Experiments:
Type in all cases: cell-based, Human
HB4A = test: Quantification of CMP-Neu5Ac, UDP-GlcNAc, surface Neu5Ac and surface Neu5Gc (HPLC)
Procedure: (§1) Protocol for nutrient deprivation of cells in suspension: Step 1, cell cultures were harvested as described above. Step 2, cells were resuspended in serum-free RPMI-1640 medium and pelleted by centrifugation at 900×g for 5 min; during this step cells experience 10 min of nutrient deprivation in serum-free media without Neu5Ac. Step 3, the cells were rinsed twice in 37° C. PBS by centrifugation for 5 min and 1 mL aliquots of 1×10^4 cells were pipetted gently into 15 mL BD Falcon tubes; during this step the cells experience an additional 20 min of nutrient-deprivation. Step 3, cell suspension aliquots corresponding to […] were equilibrated in tubes containing Neu5Ac-PBS buffer by placing the tubes with opened caps for 60 min in a humidified incubator at 37° C. and 5% CO2 with continuous shaking at 30 strokes per minute; during this Neu5Ac-supplementation step, negative controls were maintained in non-supplemented PBS. Step 4, the Neu5Ac-PBS solution was decanted, the tubes were gently tapped to loosen the gravity-pelleted cells, and then rinsed twice in warm (37° C.) PBS followed by pelleting by 5 min of centrifugation each time, this process provided an additional 30 min of nutrient-deprivation in the absence of supplemental Neu5Ac. The entire 5 step process results in 2 h of nutrient deprivation, after which the cells were analyzed by the methods listed below with the exception of the wound healing assays and lectin staining which used cells that were nutrient-deprived under adherent conditions. Protocol for nutrient deprivation of adherent cells. Step 1, cells were cultured on sterile glass microscope cover slips for two days. Step 2, the cover slips were placed in a sterile plastic rack in warm (37° C.) PBS buffer for 30 min, then the PBS was replaced with Neu5Ac-PBS solution for 60 min to provide Neu5Ac supplementation (controls were maintained in non-supplemented PBS), and then the cell-laden cover slips were placed back in PBS buffer for 30 min. All incubations were performed in a humidified incubator at 37° C. and 5% CO2 with continuous shaking at 30 strokes per minute. Overall this process mimics the non-adherent treatment conditions with respect to the duration of nutrient-deprivation (2 h total) and Neu5Ac supplementation (60 min).
(§2) Cells were split and cultured (before feeding experiments) in RPMI1640 medium supplemented with 1% heat-inactivated human serum (RPMI/HUS) instead of FBS, resulting in chase-out of existing Neu5Gc. Subsequently, cells were fed with 10 mM Neu5Gc in RPMI/HUS medium or under nutrient deprived conditions as described above.
(§3) PBS-washed cells (1 Million) (untreated or Neu5Ac treated) were lysed by hypotonic shock in 1 mL water (15 min, 4° C.). The intracellular cytidine-5′-monophospho-N-acetylneuraminic acid (CMP-Neu5Ac) and uridine-5′-diphospho-N-acetyl-D-glucosamine (UDP-GlcNAc) were purified from the cell lysates and analyzed by ion-pair reversed-phase high performance liquid chromatography (IP RP HPLC) using a ODS column as described. Cell membrane-bound Neu5Ac (from untreated and Neu5Ac treated) and Neu5Gc (from untreated and Neu5Gc treated) were determined by acid hydrolysis followed by derivatization with 1,2-diamino-4,5-methylenedioxybenze (DMB) and HPLC separation as previously described. The content of CAMP-Neu5Ac, UDP-GlcNAc, surface Neu5Ac, and surface Neu5Gc was shown in nano mole per mg cell protein from five independent experiments.
(§4) Table-1: Quantification of nucleotide sugars, surface Nec5Ac, UDP-GlcNAc, Neu5Gc: Cells were treated in the presence and absence of 10 mM Nue5Ac for 2 h under nutrient deprivation and quantity of CMP-Neu5Ac (A), surface Neu5Ac (B), and UDP-GlcNAc (C) were determined. D. For quantification of surface Neu5Gc cells were treated with 10 mM Neu5Gc for 2 hrs under nutrient deprivation. The content of CMP-Neu5Ac, UDP-GlcNAc and Neu5Gc was shown in nano mole per mg cell protein from 5 independent experiments.

MCF10A = test: as above
Procedure: as §1, §2, §3, §4

MCF7 = test: as above
Procedure: as §1, §2, §3, §4

MDA MB231 = test: as above
Procedure: as §1, §2, §3, §4

T47D = test: as above
Procedure: as §1, §2, §3, §4

[1] = tested on: cancer cells T47D, MCF7, MDA MB231; test: Membrane glycosylation of cancer cells compared to normal control cells (Table 1 summary); details: 10 mM, all the cancer cells compared to control normal cells
Procedure: as §3
Human normal mammary epithelial cell lines MCF10A and HB4A and breast cancer cell lines T47D, MCF7 and MDA MB231 (American Type Culture Collection, USA) used in the study were cultured and treated according to the methods described earlier. Cells were nutritionally deprived using different time points followed by the sialic acid supplementation according to the method described earlier. […] The data were in strong agreement with the immunoblot data which were derived by assessing different enzymes responsible for glycosylation. […]

MDA MB231 cells = test: Microarray of genes upregulated after sialic acid treatment under nutrient deprivation
Procedure: The membrane glycosylation of the cancer cells is synchronized by the alteration of gene expression. The microarray was performed aiming to identify the genes that had undergone changes induced by the enriched sugar environment. […] Inventors examined the status of the expression of those genes at both transcriptional and translational level, in another word, at mRNA and protein level by performing the quantitative real time polymerase chain reaction (qRT-PCR) and immunoblot. Remarkably, qRT-PCR and Western blot are 2 techniques that are used to quantify the expression of mRNA and protein. Data of qRT-PCR and Western blot were in strong agreement with the microarray data indicating a clear link between the expression of those genes and glycosylation of cell membrane domain. This patent aims to pursue the cancer cell management by targeting those genes at mRNA and protein level. Small interference RNA (siRNA) and small hairpin RNA (shRNA) will be designed to knockdown the mRNA. Similarly, the functions of the genes at protein level will be inhibited or disrupted by using antibody, small peptide, pharmaceutical blocker, and targeted toxin. Regression of cancer cells will be verified following transcriptional and translational manipulation.

[2] = tested on: cancer and normal control cells; test: TUNEL assay flow cytometry of apoptosis after sialic acid treatment
Procedure: For this purpose, cells were fixed by suspending them in 70% (v/v) ethanol and stored at 4° C. for 15 min, washed twice with cold PBS, and then placed in 96-well plates (1×10^4 cells per well). The cells were then stained with the fluorescein isothiocyanate-labeled lectins (SWGA, WGA, SNA and MAL-1). For the comparison of mean fluorescence intensities, the instrument settings for fluorescence and compensation were the same for all experiments. Data were collected from at least 10,000 cells for each sample. For TUNEL assay, cells were incubated with DNA-labeling solution (10 μL reaction buffer, 0.75 μL TdT enzyme, 8 μL BrdUTP, 31.25 μL of dH2O) for 1 h at 25° C. Each sample was then exposed to an antibody solution consisting of 5 μL Alexa Fluor 488 labeled anti-BrdU antibody with 95 μL rinse solution and allowed to react for 20 min.
FIG. 6: Optimization of conditions for nutrient deprivation and rescue via sialic acid supplementation. […] Data are the representative of five independent experiments.

[3] = treated with 10 mM Neu5Gc for 2 hrs under nutrient deprivation
[4] = treated with 10 mM Neu5Ac for 2 h under nutrient deprivation
[5] = MCF7, treated with 10 mM Neu5Ac for 2 h under nutrient deprivation
[6] = MDA MB231, treated with 10 mM Neu5Ac for 2 h under nutrient deprivation
[7] = 10 mM sialic acid under nutrient deprivation relative to the untreated control

## O=C(CO)N[C@H]1[C@H]([C@H](O)[C@H](O)CO)OC(O)(C(=O)O)C[C@@H]1O (some centres unmarked) [Neu5Gc, N-glycolylneuraminic acid]
HB4A; [3]
  surface Neu5Gc: 0.182 ± 0.73 nano mole per mg cell protein
MCF10A; [3]
  surface Neu5Gc: 0.177 ± 0.31 nano mole per mg cell protein
MCF7; MCF7, treated with 10 mM Neu5Gc for 2 hrs under nutrient deprivation
  surface Neu5Gc: 1.58 ± 0.912 nano mole per mg cell protein
MDA MB231; MDA MB231, treated with 10 mM Neu5Gc for 2 hrs under nutrient deprivation
  surface Neu5Gc: 1.79 ± 0.982 nano mole per mg cell protein
T47D; [3]
  surface Neu5Gc: 0.608 ± 0.675 nano mole per mg cell protein
[1]
  glycosylation of membrane: upregulated the glycosylation significantly

## CC(=O)N[C@H]1[C@H]([C@H](O)[C@H](O)CO)OC(O)(C(=O)O)C[C@@H]1O (some centres unmarked) [Neu5Ac, N-acetyl-5-neuraminic acid]
HB4A; [4]
  CMP-Neu5Ac: 0.51 ± 1.33 nano mole per mg cell protein
  UDP-GlcNAc: 5.32 ± 7.41 nano mole per mg cell protein
  surface Neu5Ac: 1.83 ± 2.09
MCF10A; [4]
  CMP-Neu5Ac: 0.45 ± 1.92 nano mole per mg cell protein
  UDP-GlcNAc: 5.18 ± 2.52 nano mole per mg cell protein
  surface Neu5Ac: 1.81 ± 2.15
MCF7; [5]
  CMP-Neu5Ac: 2.253 ± 1.77 nano mole per mg cell protein
  UDP-GlcNAc: 12.40 ± 3.66 nano mole per mg cell protein
  surface Neu5Ac: 7.05 ± 3.95
MDA MB231; [6]
  CMP-Neu5Ac: 2.496 ± 2.63 nano mole per mg cell protein
  UDP-GlcNAc: 12.53 ± 4.2 nano mole per mg cell protein
  surface Neu5Ac: 7.12 ± 4.91
T47D; [4]
  CMP-Neu5Ac: 1.06 ± 1.42 nano mole per mg cell protein
  UDP-GlcNAc: 6.513 ± 5.3 nano mole per mg cell protein
  surface Neu5Ac: 5.07 ± 4.56
MDA MB231 cells; [7]
  Log2 Ratio, CHI3L2: 2.68
  Log2 Ratio, EQTN: 3.078
  Log2 Ratio, OSMR: 2.215
  Log2 Ratio, PCMTD1: 2.118
  Log2 Ratio, PHLDA1: 2.626
  Log2 Ratio, RICTOR: 2.334
  Log2 Ratio, RSRP1: 2.33
  Log2 Ratio, RUNX2: 2.21
  Log2 Ratio, SCG2: 2.171
  Log2 Ratio, SEC24D: 2.199
MDA MB231 cells; compared to normal control cells
  expression of 10 particular genes in sialic acid treated cancer cells: more than 5 folds
[2]; 180 minutes, both cell types, cancer and normal control cells
  apoptosis: significant apoptosis
[2]; 240 minutes, both cell types, cancer and normal control cells
  apoptosis: significant apoptosis
[2]; cells treated for 120 minutes, 10 mM sialic acid, nutrient deprived condition
  apoptosis: no apoptosis
